Source: PubChem BioAssay AID540365 (The Scripps Research Institute Molecular Screening Center, 2011)
The source made the active and inactive calls. How the calls were made is not given here.

Target: Neuropeptides B/W receptor type 1 (Homo sapiens) (UniProt P48145)
Test: NPBW1 receptor blockers in cells – cell-based, fluorescence, dose response, set 3, late-stage follow-up (AID 540365)
Conditions: GPR7-expressing cells, fluorescence antagonist read-out

SMILES | IC50 (run 1) | IC50 (run 2) | IC50 (run 3)
CCCOc1ccc(Oc2c(Cl)cnn(Cc3cccc4ccccc34)c2=O)cc1 | 1140 nM | 1080 nM | 1120 nM
CCOC(=O)C(c1ccccc1)n1ncc(Cl)c(Oc2ccc(OC)cc2)c1=O (centres undefined) | 1320 nM | 864 nM | 953 nM
COc1ccc(Oc2c(Cl)cnn(C(c3ccccc3)c3ccccc3)c2=O)cc1 | 580 nM | 497 nM | 481 nM
CCOc1ccc(Oc2c(S(C)=O)cnn(Cc3cccc4ccccc34)c2=O)cc1 (centres undefined) | 2220 nM | 2130 nM | 2090 nM
C=Cc1nn(Cc2ccccc2C)c(=O)c(Oc2ccc(OC)cc2)c1C=C | 418 nM | 808 nM | 818 nM
COc1ccc(Sc2c(Cl)cnn(Cc3cccc4ccccc34)c2=O)cc1 | 660 nM | 1030 nM | –
COc1ccc(Oc2c(Cl)c(C#N)nn(Cc3ccccc3C)c2=O)cc1 | 1090 nM | 1270 nM | 1190 nM
CCOC(=O)C(c1cccc2ccccc12)n1ncc(Cl)c(Oc2ccc(OC)cc2)c1=O (centres undefined) | 451 nM | 597 nM | 1310 nM
COc1ccc(Oc2c(Cl)cnn(Cc3cccc4cnccc34)c2=O)cc1 | 3400 nM | 4100 nM | 4930 nM
CCOc1ccc(Oc2c(Cl)cnn(C3c4ccccc4-c4ccccc43)c2=O)cc1 | 480 nM | 168 nM | 207 nM
COc1ccc(Nc2c(Cl)cnn(Cc3cccc4ccccc34)c2=O)cc1 | inactive | 9470 nM | > 20000 nM (inactive)
COc1ccc(Oc2c(Br)cnn(Cc3cccc4ccccc34)c2=O)cc1 | 132 nM | 242 nM | 240 nM
COc1ccc(Oc2c(Cl)cnn(Cc3c(F)cccc3F)c2=O)cc1 | 843 nM | 726 nM | 719 nM
COc1ccc(Oc2c(C#N)cnn(Cc3cccc4ccccc34)c2=O)cc1 | 1310 nM | 1690 nM | 2490 nM
COc1ccc(Oc2c(Cl)cnn(Cc3ccc4ccccc4c3)c2=O)cc1 | 1480 nM | 1950 nM | 2020 nM
CCOc1ccc(Oc2c(Cl)c(Br)nn(Cc3cccc4ccccc34)c2=O)cc1 | 177 nM | 237 nM | –
CCCOc1ccc(Oc2c(Cl)cnn(C3c4ccccc4-c4ccccc43)c2=O)cc1 | > 20000 nM (inactive) | > 20000 nM (inactive) | > 20000 nM (inactive)
